# Measurements reported in ChEMBL document CHEMBL5518215, “Unlocking Antibacterial Potential: Key-Site-Based Regulation of Antibacterial Spectrum of Peptides” (J Med Chem, 2024).
# Columns and labels:
# Listeria monocytogenes [1] = assay: Antimicrobial activity against Listeria monocytogenes 1.10753 assessed as bacterial killing measured after 16 hrs incubation; format: functional
# [2] = Antimicrobial activity against Salmonella pullorum C7913 assessed as absence bacterial growth measured after 18 to 24 hrs incubation by NCCLS method; format: functional, Salmonella enterica subsp. enterica serovar Pullorum; details: Salmonella enterica, time 18-24 hrs
# Bacillus cereus [3] = assay: Antimicrobial activity against Bacillus cereus 1.932 assessed as absence bacterial growth measured after 18 to 24 hrs incubation by NCCLS method; format: functional; details: time 18-24 hrs
# Escherichia coli [4] = assay: Antimicrobial activity against Escherichia coli 25922 assessed as absence bacterial growth measured after 18 to 24 hrs incubation in presence of KCl by NCCLS method; format: functional; details: time 18-24 hrs
# Escherichia coli [5] = assay: Antimicrobial activity against Escherichia coli 25922 assessed as absence bacterial growth measured after 18 to 24 hrs incubation by NCCLS method; format: functional; details: time 18-24 hrs
# [6] = Cytotoxicity against human HEK-293T cells assessed as cell survival rate measured after 8 hrs by MTT assay; format: toxicity, cell-based
# Staphylococcus aureus [7] = assay: Antimicrobial activity against Staphylococcus aureus 29213 assessed as absence bacterial growth measured after 18 to 24 hrs incubation by NCCLS method; format: functional; details: time 18-24 hrs
# Staphylococcus aureus [8] = assay: Antimicrobial activity against Staphylococcus aureus 25923 assessed as bacterial killing measured after 16 hrs incubation; format: functional
# Escherichia coli [9] = assay: Antimicrobial activity against Escherichia coli K88 assessed as bacterial killing measured after 16 hrs incubation; format: functional
# Enterococcus faecalis [10] = assay: Antimicrobial activity against Enterococcus faecalis 29212 assessed as absence bacterial growth measured after 18 to 24 hrs incubation by NCCLS method; format: functional; details: time 18-24 hrs
# Staphylococcus aureus [11] = assay: Antimicrobial activity against Methicillin-resistant Staphylococcus aureus 43300 assessed as bacterial killing measured after 16 hrs incubation; format: functional
# Escherichia coli [12] = assay: Antimicrobial activity against Escherichia coli 25922 assessed as absence bacterial growth measured after 18 to 24 hrs incubation in presence of NH4Cl by NCCLS method; format: functional; details: time 18-24 hrs
# Erythrocyte = assay: Hemolytic activity in human RBC at effective concentration measured after 1 hr by microplate reader analysis; format: toxicity, cell-based
# Salmonella typhimurium [13] = assay: Antimicrobial activity against Salmonella typhimurium C7731 assessed as bacterial killing measured after 16 hrs incubation; format: functional, Salmonella enterica subsp. enterica serovar Typhimurium; details: Salmonella enterica
# Acinetobacter baumannii [14] = assay: Antimicrobial activity against Acinetobacter baumannii 1.6769 assessed as bacterial killing measured after 16 hrs incubation; format: functional
# [15] = Cytotoxicity against human HEK-293T cells assessed as cell survival rate at 64 uM measured after 8 hrs by MTT assay relative to control; format: toxicity, cell-based; details: read-out: Activity
# [16] = Hemolytic activity in human RBC at effective concentration at 128 uM measured after 1 hr by microplate reader relative to control; format: toxicity, cell-based, Erythrocyte; details: human red blood cells (erythrocytes), read-out: Activity
# Escherichia coli [17] = assay: Antimicrobial activity against Escherichia coli 25922 assessed as absence bacterial growth measured after 18 to 24 hrs incubation in presence of NaCl by NCCLS method; format: functional; details: time 18-24 hrs
# Escherichia coli [18] = assay: Antimicrobial activity against Escherichia coli 25922 assessed as absence bacterial growth measured after 18 to 24 hrs incubation in presence of 25% serum by NCCLS method; format: functional; details: time 18-24 hrs
# Pseudomonas aeruginosa [19] = assay: Antimicrobial activity against Pseudomonas aeruginosa 27853 assessed as absence bacterial growth measured after 18 to 24 hrs incubation by NCCLS method; format: functional; details: time 18-24 hrs
# Staphylococcus aureus [20] = assay: Antimicrobial activity against Staphylococcus aureus 29213 assessed as bacterial killing measured after 16 hrs incubation; format: functional
# Escherichia coli [21] = assay: Antimicrobial activity against Escherichia coli 25922 assessed as absence bacterial growth measured after 18 to 24 hrs incubation in presence of ZnCl2 by NCCLS method; format: functional; details: time 18-24 hrs
# Salmonella typhimurium [22] = assay: Antimicrobial activity against Salmonella typhimurium 14028 assessed as bacterial killing measured after 16 hrs incubation; format: functional, Salmonella enterica subsp. enterica serovar Typhimurium; details: Salmonella enterica
# Staphylococcus aureus [23] = assay: Antimicrobial activity against Staphylococcus aureus 29213 assessed as absence bacterial growth measured after 18 to 24 hrs incubation by NCCLS m; format: functional; details: time 18-24 hrs
# Escherichia coli [24] = assay: Antimicrobial activity against Escherichia coli K88 assessed as absence bacterial growth measured after 18 to 24 hrs incubation by NCCLS method; format: functional; details: time 18-24 hrs
# [25] = Cytotoxicity against mouse RAW264.7 cells assessed as cell survival rate measured after 8 hrs by MTT assay; format: toxicity, cell-based
# Pseudomonas aeruginosa [26] = assay: Antimicrobial activity against Pseudomonas aeruginosa 27853 assessed as bacterial killing measured after 16 hrs incubation; format: functional
# Enterococcus faecalis [27] = assay: Antimicrobial activity against Enterococcus faecalis 29212 assessed as bacterial killing measured after 16 hrs incubation; format: functional
# Listeria monocytogenes [28] = assay: Antimicrobial activity against Listeria monocytogenes 1.10753 assessed as absence bacterial growth measured after 18 to 24 hrs incubation by NCCLS method; format: functional; details: time 18-24 hrs
# Escherichia coli [29] = assay: Antimicrobial activity against Escherichia coli 25922 assessed as absence bacterial growth measured after 18 to 24 hrs incubation in presence of MgCl2 by NCCLS method; format: functional; details: time 18-24 hrs
# [30] = system: Staphylococcus epidermidis; assay: Antimicrobial activity against Staphylococcus epidermidis 12228 assessed as bacterial killing measured after 16 hrs incubation; format: functional
# Acinetobacter baumannii [31] = assay: Antimicrobial activity against Acinetobacter baumannii 1.6769 assessed as absence bacterial growth measured after 18 to 24 hrs incubation by NCCLS method; format: functional; details: time 18-24 hrs
# Escherichia coli [32] = assay: Antimicrobial activity against Escherichia coli 25922 assessed as absence bacterial growth measured after 18 to 24 hrs incubation in presence of FeCl3 by NCCLS method; format: functional; details: time 18-24 hrs
# Salmonella typhimurium [33] = assay: Antimicrobial activity against Salmonella typhimurium 14028 assessed as absence bacterial growth measured after 18 to 24 hrs incubation by NCCLS method; format: functional, Salmonella enterica subsp. enterica serovar Typhimurium; details: Salmonella enterica, time 18-24 hrs
# Escherichia coli [34] = assay: Antimicrobial activity against Escherichia coli 25922 assessed as bacterial killing measured after 16 hrs incubation; format: functional
# Staphylococcus aureus [35] = assay: Antimicrobial activity against Methicillin-resistant Staphylococcus aureus 43300 assessed as absence bacterial growth measured after 18 to 24 hrs incubation by NCCLS method; format: functional; details: time 18-24 hrs
# Escherichia coli [36] = assay: Antimicrobial activity against Escherichia coli 25922 assessed as absence bacterial growth measured after 18 to 24 hrs incubation in presence of 12.5% serum by NCCLS method; format: functional; details: time 18-24 hrs
# Bacillus cereus [37] = assay: Antimicrobial activity against Bacillus cereus 1.932 assessed as bacterial killing measured after 16 hrs incubation; format: functional
# [38] = Cytotoxicity against porcine IPEC-J2 cells assessed as cell survival rate at 64 uM measured after 8 hrs by MTT assay relative to control; format: toxicity, cell-based, Sus scrofa; details: pig, read-out: Activity
# [39] = Antimicrobial activity against Salmonella pullorum C7913 assessed as bacterial killing measured after 16 hrs incubation; format: functional, Salmonella enterica subsp. enterica serovar Pullorum; details: Salmonella enterica
# Salmonella typhimurium [40] = assay: Antimicrobial activity against Salmonella typhimurium C7731 assessed as absence bacterial growth measured after 18 to 24 hrs incubation by NCCLS method; format: functional, Salmonella enterica subsp. enterica serovar Typhimurium; details: Salmonella enterica, time 18-24 hrs
# Escherichia coli [41] = assay: Antimicrobial activity against Escherichia coli 25922 assessed as absence bacterial growth measured after 18 to 24 hrs incubation in presence of 50% serum by NCCLS method; format: functional; details: time 18-24 hrs
# [42] = Cytotoxicity against porcine IPEC-J2 cells assessed as cell survival rate measured after 8 hrs by MTT assay; format: toxicity, cell-based, Sus scrofa; details: pig
# [43] = system: Staphylococcus epidermidis; assay: Antimicrobial activity against Staphylococcus epidermidis 12228 assessed as absence bacterial growth measured after 18 to 24 hrs incubation by NCCLS method; format: functional; details: time 18-24 hrs
substance,measurement,setting,value
H-GKLWLKGGKLWLKAGKLWLKG-NH2,MBC,Listeria monocytogenes [1],> 32 µM
same,MIC,[2],2 µM
same,MIC,Bacillus cereus [3],4 µM
same,MIC,Escherichia coli [4],2 µM
same,MIC,Escherichia coli [5],2 µM
same,IC50 at 8 h,[6],> 64 µM
same,MIC,Staphylococcus aureus [7],8 µM
same,MBC,Staphylococcus aureus [8],8 µM
same,MBC,Escherichia coli [9],1 µM
same,MIC,Enterococcus faecalis [10],8 µM
same,MBC,Staphylococcus aureus [11],4 µM
same,MIC,Escherichia coli [12],2 µM
same,HC10,Erythrocyte,> 128 µM
same,MBC,Salmonella typhimurium [13],8 µM
same,MBC,Acinetobacter baumannii [14],4 µM
same,"viability at 8 h, 64 µM",[15],> 80%
same,"hemolysis at 1 h, 128 µM",[16],< 10%
same,MIC,Escherichia coli [17],16 µM
same,MIC,Escherichia coli [18],32 µM
same,MIC,Pseudomonas aeruginosa [19],4 µM
same,MBC,Staphylococcus aureus [20],8 µM
same,MIC,Escherichia coli [21],1 µM
same,MBC,Salmonella typhimurium [22],4 µM
same,MIC,Staphylococcus aureus [23],4 µM
same,MIC,Escherichia coli [24],1 µM
same,IC50 at 8 h,[25],> 64 µM
same,MBC,Pseudomonas aeruginosa [26],8 µM
same,MBC,Enterococcus faecalis [27],16 µM
same,MIC,Listeria monocytogenes [28],> 32 µM
same,MIC,Escherichia coli [29],8 µM
same,MBC,[30],8 µM
same,MIC,Acinetobacter baumannii [31],2 µM
same,MIC,Escherichia coli [32],2 µM
same,MIC,Salmonella typhimurium [33],4 µM
same,MBC,Escherichia coli [34],4 µM
same,MIC,Staphylococcus aureus [35],4 µM
same,MIC,Escherichia coli [36],16 µM
same,MBC,Bacillus cereus [37],4 µM
same,"viability at 8 h, 64 µM",[38],> 80%
same,MBC,[39],2 µM
same,MIC,Salmonella typhimurium [40],4 µM
same,MIC,Escherichia coli [41],> 32 µM
same,IC50 at 8 h,[42],54.1 µM
same,MIC,[43],4 µM
